Entries after “also recorded” stand apart in the source; their conditions may differ.
Tests used:
T24 3D-DTMs [1] = experiment: Transfer of dormant T24 3D-DTMs from AM3 to AM1 Amikagel: cell escape, filopodia, microcolony formation; type: cell-based; details: for formation of micrometastasis-like nodules / microcolonies: 100 μM pre-treated, 15 days after transfer to AM1
Procedure: 1 ml of amikagel AM1, AM2 and AM3 pre-gel solutions were filtered through a 0.20 μm filter and 40 μL of the filtrate was added to each well of a 96 well plate. The plates were sealed with paraffin tape (Parafilm, Menasha, Wis.) and incubated in an oven maintained at 40° C. for 7.5 hours. After gelation, the surfaces of Amikagels were washed with 150 μL of Nanopure® water for 12 hours, in order to remove traces of unreacted monomers.
All 3DTM (3D tumor microenvironments) experiments were set up by liquid overlay culture (2) of cells on top of Amikagel surface in a total volume of […] media/well; either 100,000 cancer cells alone (single culture) or 50,000 stromal cells followed by 50,000 cancer cells (co-culture) were incubated, unless indicated otherwise in specific cases. After 48 hours of incubation, 50% of the media in the wells was replaced with fresh media i.e. DMEM/RPMI+10% (v/v) FBS+1% (v/v) Pen-Strep at regular intervals of 48 hours. Care was taken to withdraw and add the media slowly so as to not perturb 3DTM formation. Fresh media was added every 48 hours following cell plating. For 3DTM generation on 24 well plates, 400 μL of pre-gel volume was used instead of 40 μl. Different co-culture 3DTM systems are represented as fibroblast/stromal cells-epithelial cells (e.g. NIH3T3-T24, WPMY-1-T24) to accurately indicate the sequence of their addition. In most cases, 3DTMs were formed 5-7 days following culture on Amikagels.
T24 3DTMs were first formed on AM3, and transferred to AM1s on the seventh day following initial cell seeding, in order to investigate the role of chemo-mechanical properties of Amikagels on 3DTM fate, and migration of metastatic cells out of the 3DTM spheroid. Upon transfer, cells from 3DTMs were monitored for cell spreading and motility on the gel for an additional 7 days. After 7 days, cell cycle analysis and N-cadherin analysis was carried out on the all 3DTMs. Long-term experiments were also carried out where 3D-DTMs were continuously monitored for 15 days after their transfer from AM3 gel to AM1 gel.

T24 3D-DTMs [2] = experiment: Cell cycle analysis of T24 3D-DTMs by propidium iodide flow cytometry; type: cell-based
Procedure: Following five days of incubation on AM3, 3DTMs of T24 cells with NIH3T3 murine fibroblast cells were harvested for cell cycle analysis. Four or five individual 3DTMs of T24 cells alone or UMUC3 cells alone were harvested on the 7th day after seeding on Amikagels, collected in an eppendorf tube. 50 μL of 5 mg/ml collagenase was added to 3DTMs prepared using fibroblast helper cells for 30 minutes at 37° C. in order to facilitate their disassembly by gentle pipetting. Single cell 3DTMs were disassembled using manual pipetting.
Disassembled 3DTM cells were then centrifuged at 200 r.c.f. in order to collect the cell pellet. The pellet was resuspended in a solution of 1% v/v 1× Triton-X, 5% (v/v) fetal bovine serum (FBS), 50 μg/mL propidium iodide, and 0.006-0.01 units/mL ribonuclease A. After incubation for 30 minutes on ice, cells were analyzed for their cell cycle profiles using flow cytometry; the propidium iodide (PI) signal was detected using an excitation at 535 nm and emission at 617 nm.
Voltages of the FL2-A, SSC and FSC channels were adjusted in order to obtain best representative peaks for alignment of 2n (diploidy−G0/G1) peak to 200 intensity units during flow cytometry. FL2A (FL2-Area) provides the information regarding the pulse area of the emitted fluorescence signal (total cell fluorescence) whereas SSC and FSC provide the information regarding the […] light from the sample. FSC is a measure of diffracted light from the sample proportional to cell surface area or size and SSC is proportional to cell granularity or internal complexity.

T24 3D-DTMs [3] = experiment: Viability of T24 3D-DTMs after docetaxel treatment; type: cell-based; details: following treatment
phospho-AKT = details: cited from earlier work
phospho-FAK = details: cited from earlier work
cdc42 = cdc42 (Homo sapiens, UniProt P60953); details: other cancer cell lines; cited from earlier work
Chain of cdc42 (P60953 whole entry, species assumed): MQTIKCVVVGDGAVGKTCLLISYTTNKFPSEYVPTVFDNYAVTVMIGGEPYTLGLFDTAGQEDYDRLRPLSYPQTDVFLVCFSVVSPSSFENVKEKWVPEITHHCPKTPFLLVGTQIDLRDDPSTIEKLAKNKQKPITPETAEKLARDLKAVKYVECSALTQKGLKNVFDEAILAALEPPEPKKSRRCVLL

Q: Which results are given for `CC(=O)O[C@@]12CO[C@@H]1C[C@H](O)[C@@]1(C)C(=O)[C@H](O)C3=C(C)[C@@H](OC(=O)[C@H](O)[C@@H](NC(=O)OC(C)(C)C)c4ccccc4)C[C@@](O)([C@@H](OC(=O)c4ccccc4)[C@H]21)C3(C)C` [Docetaxel, docetaxel]?
A: cellular escape from the mother 3D-DTM (T24 3D-DTMs [1]; 12.5 μM-100 μM): significantly reduced; formation of micrometastasis-like nodules / microcolonies (T24 3D-DTMs [1]): significantly reduced cell escape and microcolony formation; formation of micrometastasis-like nodules / microcolonies (T24 3D-DTMs [1]; listed as docetaxel): drastically reduced; cells escaping the mother spheroid (T24 3D-DTMs [1]; 100 μM pre-treatment on AM3, 48 hours after transfer to AM1): significantly lesser number of cells escaped; filopodia formation on cells shed on AM1 (T24 3D-DTMs [1]; after treatment of T24 3D-DTMs): did not show filopodia formation; also recorded: not observed; cells in the G2/M phase, treated vs untreated 3D-DTM (T24 3D-DTMs [2]; 96 hours on AM3): No significant differences; cells in the sub-G0/G1 phase of the cell cycle, treated mother 3D-DTM (T24 3D-DTMs [2]; 96 hours on AM3): modest increase; cell cycle profile of treated T24 3D-DTMs (T24 3D-DTMs [2]; following treatment): dormant cell cycle profile; viability of treated T24 3D-DTMs (T24 3D-DTMs [3]): remained viable; reduction of phospho-AKT expression compared to untreated T24 cells (phospho-AKT): ~41%; reduction of phospho-FAK expression compared to untreated T24 cells (phospho-FAK): ~34%; inhibition of cdc42 (cdc42): effectively inhibit

From patent US20190078052A1, “ENGINEERED ADHESIVE SUBSTRATES FOR HIGH-THROUGHPUT CELL ISOLATION AND SEPARATION” (ARIZONA BOARD OF REGENTS ON BEHALF OF ARIZONA STATE …, priority 2016, published 2019)
